# From US20240415918A1, “Polypeptide and its use as a CCK receptor agonist/antagonist” (Centre for Regenerative Medicine & Health, Hong Kong …, priority 2021, published 2024)
# Where a SMILES comes first, the peptide text is derived from it. Where no end group is shown, it is not given here. [ ]: non-standard residue; d: D form. The star is where a group is joined. Trp(1-Me) = Cn1cc(C[C@H](N)C(=O)O)c2ccccc21; NMeW = CN[C@@H](Cc1c[nH]c2ccccc12)C(=O)O; Phe(3-Br) = N[C@@H](Cc1cccc(Br)c1)C(=O)O; Fmoc = O=C(OCC1c2ccccc2-c2ccccc21)*; Aad = N[C@@H](CCCC(=O)O)C(=O)O; Aoc(2) = CCCCCC[C@H](N)C(=O)O; Nle = CCCC[C@H](N)C(=O)O; Cbz = O=C(OCc1ccccc1)*
# Legend:
# [1] = target: T1, CCK-B receptors (CHO-CCK) (Homo sapiens, UniProt P32239); assay: Calcium flux (Fluo-8) antagonist test on CHO-CCK model cells in presence of CCK8; type: cell-based
# T1 construct: expressed in transfected cells; host or cells: CHO (CHO-CCK model cells)
# T1 sequence (P32239 1-447): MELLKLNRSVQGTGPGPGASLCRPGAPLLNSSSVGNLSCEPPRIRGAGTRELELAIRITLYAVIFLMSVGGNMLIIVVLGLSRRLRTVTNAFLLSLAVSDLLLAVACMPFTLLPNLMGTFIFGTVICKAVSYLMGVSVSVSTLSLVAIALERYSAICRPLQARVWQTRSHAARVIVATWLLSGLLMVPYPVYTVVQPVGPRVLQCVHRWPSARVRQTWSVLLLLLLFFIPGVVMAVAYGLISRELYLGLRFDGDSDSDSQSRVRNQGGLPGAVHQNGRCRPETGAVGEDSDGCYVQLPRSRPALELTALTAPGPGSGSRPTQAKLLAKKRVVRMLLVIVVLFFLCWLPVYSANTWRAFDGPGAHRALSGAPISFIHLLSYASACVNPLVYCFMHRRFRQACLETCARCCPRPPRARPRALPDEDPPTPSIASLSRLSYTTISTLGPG
# Method: The compound was formulated to a 10 mM mother liquor with DMSO, and then diluted into a series of 9 concentrations with a 3-fold gradient to form a 1000× stock solution. […] Prepare 1×Fluo-8 analysis buffer: mix 9 mL of HHBS, 1 mL of 10× Pluronic F127 Plus and 20 μL of Fluo-8 thoroughly for later use. • 3. Add Fluo-8 dye working solution to the cell plate, 100 μL/well. First incubate in a 37° C. incubator for 30 min, and then take it out and incubate at room temperature in the dark for 30 min. • 4. In the process of incubating cells, the compounds to be detected were prepared with HHBS. • 5. […] The agonism/antagonism EC50 of the compound can be obtained by plotting the fitting curve with the agonism/antagonism percentage as Y-axis and the concentration of the compound as X-axis.
# [2] = target: T1, CCK-B receptors (CHO-CCK); assay: Calcium flux (Fluo-8) agonist test on CHO-CCK model cells; type: cell-based; settings: for EC50 / % Act-Ave @ 1 nM / % Act-Ave @ 50 nM: CHO-CCK cells; for Agonistic Activity (%) at 10 μM: compound at 10 μM, percentage of signal of 20 nM CCK8 alone; for % Act-Ave @ 1 nM: compound at 1 nM; for % Act-Ave @ 50 nM: compound at 50 nM
# How it was run: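 Agonist-mode Fluo-8 calcium flux read on CHO-CCK cells after dye loading 30 min at 37 °C plus 30 min at room temperature.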
# [3] = in presence of 10 nM CCK8, bound in μM
# [4] = Fluo-8 calcium flux, bound in μM
# [5] = Fluo-8 calcium flux, 100% control = 20 nM CCK8
compound,measurement,setting,value
"CSCC[C@H](NC(=O)[C@H](Cc1ccc(O)cc1)NC(C)=O)C(=O)NCC(=O)N[C@@H](Cc1c[nH]c2ccccc12)C(N)=O [HT-207, Ac-Tyr-Met-Gly-Trp-NH2] (Ac-YMGW-NH2)",EC50,[1]; [3],> 10 µM
same,EC50,[2]; [4],> 10 µM
"CCCC[C@H](NC(=O)[C@@H](Cc1cn(C)c2ccccc12)NC(C)=O)C(=O)N[C@@H](CCC(=O)O)C(=O)N[C@@H](Cc1cn(C)c2ccccc12)C(N)=O [HT-245, Ac-(1-Me-Trp)-Nle-Glu-(1-Me-Trp)-NH2]",EC50,[1]; in presence of 10 nM CCK8,1.76 µM
same,EC50,[2]; [4],> 10 µM
"CCCC[C@H](NC(=O)[C@H](Cc1c[nH]c2ccccc12)NC(C)=O)C(=O)N[C@@H](CCC(=O)O)C(=O)N[C@@H](Cc1cn(C)c2ccccc12)C(N)=O [HT-241, Ac-D-Trp-Nle-Glu-(1-Me-Trp)-NH2]",EC50,[1]; [3],> 10 µM
same,EC50,[2]; [5],3.55 µM
"COC(=O)C[C@H](NC(=O)[C@H](CCSC)NC(=O)[C@H](N)Cc1c[nH]c2ccccc12)C(=O)N[C@@H](Cc1ccccc1F)C(N)=O [HT-76, D-Trp-Met-Asp(Ome)-Phe(2-F)-NH2]",Agonistic Activity (%) at 10 μM,[2],23.09%
"COC(=O)C[C@H](NC(=O)[C@H](CCSC)NC(=O)[C@H](N)Cc1c[nH]c2ccccc12)C(=O)N[C@@H](Cc1ccc([N+](=O)[O-])cc1)C(N)=O [HT-84, D-Trp-Met-Asp(Ome)-Phe(4-NO2)-NH2]",Agonistic Activity (%) at 10 μM,[2],3.24%
"COC(=O)C[C@H](NC(=O)[C@H](CCSC)NC(=O)[C@H](N)Cc1c[nH]c2ccccc12)C(=O)N[C@@H](Cc1ccc(I)cc1)C(N)=O [HT-88, D-Trp-Met-Asp(Ome)-Phe(4-I)-NH2]",Agonistic Activity (%) at 10 μM,[2],−4.64%
"CCCC[C@H](NC(=O)[C@H](Cc1c[nH]c2ccccc12)N(C)C(C)=O)C(=O)N[C@@H](CC(=O)O)C(=O)N[C@@H](Cc1cccc(Br)c1)C(N)=O [HT-273, Ac-(N-Me-Trp)-Nle-Asp-Phe(3-Br)-NH2] (Ac-[NMeW][Nle]D[Phe(3-Br)]-NH2)",% Act-Ave @ 1 nM,[2],52.14%
same,% Act-Ave @ 50 nM,[2],96.54%
"[2H]c1ccc(C[C@H](NC(=O)[C@H](CC(=O)OC)NC(=O)[C@H](CCS(C)(=O)=O)NC(=O)[C@H](N)Cc2c[nH]c3ccccc23)C(N)=O)cc1 [HT-138, D-Trp-Met(O2)-Asp(Ome)-Phe(4-F)-NH2]",Agonistic Activity (%) at 10 μM,[2],−3.84%
"COC(=O)C[C@H](NC(=O)[C@H](CC[S+](C)[O-])NC(=O)[C@H](N)Cc1c[nH]c2ccccc12)C(=O)N[C@@H](Cc1cccc(I)c1)C(N)=O (stereo partly drawn) [HT-113, D-Trp-Met(O)-Asp(Ome)-Phe(3-I)-NH2]",Agonistic Activity (%) at 10 μM,[2],6.21%
"CS(=O)(=O)CC[C@H](NC(=O)[C@H](N)Cc1c[nH]c2ccccc12)C(=O)N[C@@H](CC(=O)O)C(=O)N[C@@H](Cc1ccc(C#N)cc1)C(N)=O [HT-66, D-Trp-Met(O2)-Asp-Phe(4-CN)-NH2]",Agonistic Activity (%) at 10 μM,[2],0.33%
"CCCC[C@H](NC(=O)[C@H](Cc1c[nH]c2ccccc12)N(C)C(=O)OCC1c2ccccc2-c2ccccc21)C(=O)N[C@@H](CC(=O)O)C(=O)N[C@@H](Cc1cccc(Br)c1)C(N)=O [HT-268, Fmoc-(N-Me-Trp)-Nle-Asp-Phe(3-Br)-NH2] (Fmoc-[NMeW][Nle]D[Phe(3-Br)]-NH2)",EC50,[2]; [5],0.0013 µM
"CSCC[C@H](NC(=O)[C@H](CC(=O)O)NC(=O)[C@@H](N)Cc1ccccc1)C(=O)N[C@@H](Cc1c[nH]c2ccccc12)C(=O)O [HT-1, Phe-Asp-Met-Trp-COOH] (H-FDMW-OH)",EC50,"[2]; compound alone, bound in μM",> 10 µM
"COC(=O)C[C@H](NC(=O)[C@H](CCS(C)(=O)=O)NC(=O)[C@H](N)Cc1c[nH]c2ccccc12)C(=O)N[C@@H](Cc1ccc(C#N)cc1)C(N)=O [HT-134, D-Trp-Met(O2)-Asp(Ome)-Phe(4-CN)-NH2]",Agonistic Activity (%) at 10 μM,[2],11.25%
"COC(=O)C[C@H](NC(=O)[C@H](CC[S+](C)[O-])NC(=O)[C@H](N)Cc1c[nH]c2ccccc12)C(=O)N[C@@H](Cc1ccc(Br)cc1)C(N)=O (stereo partly drawn) [HT-119, D-Trp-Met(O)-Asp(Ome)-Phe(4-Br)-NH2]",Agonistic Activity (%) at 10 μM,[2],6.93%
"C[S+]([O-])CC[C@H](NC(=O)[C@H](N)Cc1c[nH]c2ccccc12)C(=O)N[C@@H](CC(=O)O)C(=O)N[C@@H](Cc1ccc(C#N)cc1)C(N)=O (stereo partly drawn) [HT-49, D-Trp-Met(O)-Asp-Phe(4-CN)-NH2]",Agonistic Activity (%) at 10 μM,[2],1.03%
HHHHHHSSGGWKDF-NH2 [HT-286],% Act-Ave @ 1 nM,[2],−0.40%
same,% Act-Ave @ 50 nM,[2],−0.52%
"CCCC[C@H](NC(=O)[C@H](Cc1c[nH]c2ccccc12)N(C)C(C)=O)C(=O)N[C@@H](CCCC(=O)O)C(=O)N[C@@H](Cc1cccc(Br)c1)C(N)=O [HT-272, Ac-(N-Me-Trp)-Nle-Aa-Phe(3-Br)-NH2] (Ac-[NMeW][Nle][Aad][Phe(3-Br)]-NH2)",% Act-Ave @ 1 nM,[2],−0.33%
same,% Act-Ave @ 50 nM,[2],86.09%
"CSCC[C@@H](NC(=O)[C@H](CC(=O)O)NC(=O)[C@H](Cc1ccccc1)NC(C)=O)C(=O)N[C@@H](Cc1c[nH]c2ccccc12)C(=O)O [HT-5, Ac-Phe-Asp-D-Met-Trp-NH2]",EC50,"[2]; compound alone, bound in μM",> 10 µM
"C[S+]([O-])CC[C@H](NC(=O)[C@H](N)Cc1c[nH]c2ccccc12)C(=O)N[C@@H](CC(=O)O)C(=O)N[C@@H](Cc1ccc(Cl)cc1)C(N)=O (stereo partly drawn) [HT-52, D-Trp-Met(O)-Asp-Phe(4-Cl)-NH2]",Agonistic Activity (%) at 10 μM,[2],15.71%
"COC(=O)C[C@H](NC(=O)[C@H](CCS(C)(=O)=O)NC(=O)[C@H](N)Cc1c[nH]c2ccccc12)C(=O)N[C@@H](Cc1cc(Cl)cc(Cl)c1)C(N)=O [HT-140, D-Trp-Met(O2)-Asp(Ome)-Phe(3,5-DiCl)-NH2]",Agonistic Activity (%) at 10 μM,[2],10.66%
"CCCC[C@H](NC(=O)[C@H](Cc1c[nH]c2ccccc12)N(C)C(C)=O)C(=O)N[C@@H](CC(=O)O)C(=O)N[C@@H](Cc1cccc(Br)c1)C(N)=O [HT-269, Ac-(N-Me-Trp)-Nle-Asp-Phe(3-Br)-NH2] (Ac-[NMeW][Nle]D[Phe(3-Br)]-NH2)",% Act-Ave @ 1 nM,[2],0.05%
same,% Act-Ave @ 50 nM,[2],33.52%
"C[S+]([O-])CC[C@H](NC(=O)[C@H](N)Cc1c[nH]c2ccccc12)C(=O)N[C@@H](CC(=O)O)C(=O)N[C@@H](Cc1cc(F)cc(F)c1)C(N)=O (stereo partly drawn) [HT-56, D-Trp-Met(O)-Asp-Phe(3,5-DiF)-NH2]",Agonistic Activity (%) at 10 μM,[2],43.98%
"CSCC[C@H](NC(=O)[C@H](Cc1c[nH]c2ccccc12)NC(C)=O)C(=O)N[C@@H](CC(=O)O)C(=O)N[C@@H](CCC(=O)O)C(N)=O [HT-197, Ac-Trp-Met-Asp-Gln-NH2]",EC50,[1]; in presence of 10 nM CCK8,1.67 µM
"CSCC[C@@H](NC(=O)[C@@H](CC(=O)O)NC(=O)[C@@H](Cc1ccccc1)NC(C)=O)C(=O)N[C@H](Cc1c[nH]c2ccccc12)C(N)=O [HT-8, Ac-D-Phe-D-Asp-D-Met-D-Trp-NH2] (Ac-[dF][dD][dM][dW]-NH2)",EC50,"[2]; compound alone, bound in μM",> 10 µM
"COC(=O)C[C@H](NC(=O)[C@H](CCS(C)(=O)=O)NC(=O)[C@H](N)Cc1c[nH]c2ccccc12)C(=O)N[C@@H](Cc1ccccc1[N+](=O)[O-])C(N)=O [HT-126, D-Trp-Met(O)-Asp(Ome)-Phe(2-NO2)-NH2]",Agonistic Activity (%) at 10 μM,[2],9.50%
"CS(=O)(=O)CC[C@H](NC(=O)[C@H](N)Cc1c[nH]c2ccccc12)C(=O)N[C@@H](CC(=O)O)C(=O)N[C@@H](Cc1ccc(Br)cc1)C(N)=O [HT-68, D-Trp-Met(O2)-Asp-Phe(4-Br)-NH2]",Agonistic Activity (%) at 10 μM,[2],15.61%
"CCCCCC[C@H](NC(=O)[C@H](Cc1cn(C)c2ccccc12)NC(=O)OCc1ccccc1)C(=O)N[C@@H](CC(=O)O)C(=O)N[C@@H](Cc1cccc(Br)c1)C(N)=O [HT-279, Cbz-(1-Me-Trp)-Oa-Asp-Phe(3-Br)-NH2] (Cbz-[Trp(1-Me)][Aoc(2)]D[Phe(3-Br)]-NH2)",% Act-Ave @ 1 nM,[2],−0.19%
same,% Act-Ave @ 50 nM,[2],90.99%
